# Data reported in ChEMBL document CHEMBL4834431, “Design of Dimeric Bile Acid Derivatives as Potent and Selective Human NTCP Inhibitors” (J Med Chem, 2021).
# Calls of active or inactive are those of the source. No cut-off for these calls is given here.
# Columns and labels:
# Hepatitis B virus [1] = assay: Antiviral activity against HBV infected in human HepG2-NTCP cells assessed as reduction in HBeAg secretion incubated for 24 hrs followed replacement with fresh medium and measured at day 5 post infection by ELISA; type: functional, organism-based
# [2] = Stability in mouse liver microsomes assessed as half life at 1 uM preincubated for 5 mins followed by NADPH addition and measured upto 60 mins by LC-MS analysis; type: ADME, Microsome; settings: time 65 min
# [3] = Stability in mouse liver microsomes assessed as intrinsic clearance at 1 uM preincubated for 5 mins followed by NADPH addition and measured upto 60 mins by LC-MS analysis; type: ADME, Microsome; settings: time 65 min, read-out: CLH
# [4] = target: T1, Hepatic sodium/bile acid cotransporter (Homo sapiens, UniProt Q14973); assay: Inhibition of human NTCP-mediated [3H]-TCA uptake expressed in human HepG2 cells in presence of 20 % FBS; type: cell-based
# T1 sequence (Q14973 whole entry): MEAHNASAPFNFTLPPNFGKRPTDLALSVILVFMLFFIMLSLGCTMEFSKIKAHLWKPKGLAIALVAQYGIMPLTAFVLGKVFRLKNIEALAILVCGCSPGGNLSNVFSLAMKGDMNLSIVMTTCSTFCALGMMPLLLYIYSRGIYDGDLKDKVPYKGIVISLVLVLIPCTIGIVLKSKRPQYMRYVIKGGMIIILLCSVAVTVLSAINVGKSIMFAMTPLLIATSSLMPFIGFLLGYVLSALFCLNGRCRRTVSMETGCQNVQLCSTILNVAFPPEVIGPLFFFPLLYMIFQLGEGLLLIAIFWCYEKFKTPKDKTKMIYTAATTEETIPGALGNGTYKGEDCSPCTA
# [5] = target: T1, Hepatic sodium/bile acid cotransporter; assay: Inhibition of human NTCP-mediated [3H]-TCA uptake expressed in human HepG2 cells in presence of 50 % FBS; type: cell-based
# [6] = target: T1, Hepatic sodium/bile acid cotransporter; assay: Inhibition of human NTCP-mediated [3H]-TCA uptake expressed in human HepG2 cells pretreated for 2 hrs followed by [3H]-TCA addition in absence of FBS; type: cell-based
# [7] = Plasma protein binding in human; type: ADME, cell-free; settings: read-out: PPB
# [8] = Plasma protein binding in mouse; type: ADME, cell-free; settings: read-out: PPB
# [9] = target: T1, Hepatic sodium/bile acid cotransporter; assay: Inhibition of human NTCP-mediated [3H]-TCA uptake expressed in human HepG2 cells in presence of human serum; type: cell-based
# HepG2 = assay: Inhibition of human NTCP-mediated [3H]-TCA uptake expressed in human HepG2 cells in presence of bovine serum; type: cell-based; settings: Bos taurus
# [10] = target: T2, Hepatic sodium/bile acid cotransporter (Mus musculus, UniProt O08705); assay: Inhibition of mouse NTCP-mediated [3H]-TCA uptake expressed in human HepG2 cells in presence of human serum; type: cell-based
# T2 sequence (O08705 whole entry): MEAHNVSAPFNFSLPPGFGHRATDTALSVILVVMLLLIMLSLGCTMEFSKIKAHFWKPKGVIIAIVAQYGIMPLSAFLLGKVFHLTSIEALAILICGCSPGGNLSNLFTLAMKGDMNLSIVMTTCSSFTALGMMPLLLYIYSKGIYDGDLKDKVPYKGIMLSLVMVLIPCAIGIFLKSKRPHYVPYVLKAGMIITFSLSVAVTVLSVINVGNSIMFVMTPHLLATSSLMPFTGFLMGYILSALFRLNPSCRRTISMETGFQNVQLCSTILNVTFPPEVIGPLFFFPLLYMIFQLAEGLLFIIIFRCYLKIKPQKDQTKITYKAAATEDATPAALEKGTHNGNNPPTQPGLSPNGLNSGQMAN
# [11] = target: T2, Hepatic sodium/bile acid cotransporter; assay: Inhibition of mouse NTCP-mediated [3H]-TCA uptake expressed in human HepG2 cells in presence of mouse serum; type: cell-based
# [12] = Stability in human liver microsomes assessed as half life at 1 uM preincubated for 5 mins followed by NADPH addition and measured upto 60 mins by LC-MS analysis; type: ADME, Microsome; settings: time 65 min
# [13] = Stability in human liver microsomes assessed as intrinsic clearance at 1 uM preincubated for 5 mins followed by NADPH addition and measured upto 60 mins by LC-MS analysis; type: ADME, Microsome; settings: time 65 min, read-out: CLH
# [14] = Half life in ip dosed C57B/L mouse by LC/MS analysis; type: ADME, organism-based; settings: in vivo
# [15] = Bioavailability in ip dosed C57B/L mouse by LC/MS analysis; type: ADME, organism-based; settings: in vivo
# [16] = Oral bioavailability in C57B/L mouse by LC/MS analysis; type: ADME, organism-based; settings: in vivo
# Mus musculus [17] = assay: Effect on human NTCP knock-in C57B/L mouse assessed as increase in total bile acid level at 50 mg/kg, ip administered twice daily for 3 days; type: functional, organism-based; settings: time 3.0 day
# Mus musculus [18] = assay: Effect on wild-type C57B/L mouse assessed as increase in total bile acid level at 50 mg/kg, ip administered twice daily for 3 days; type: functional, organism-based; settings: time 3.0 day
# [19] = Toxicity in C57B/L mouse assessed as effect on ALT level at 50 mg/kg, ip administered twice daily for 3 days; type: organism-based; settings: in vivo, 72 h, time 3 day
# [20] = Toxicity in C57B/L mouse assessed as effect on body weight at 50 mg/kg, ip administered twice daily for 3 days; type: organism-based; settings: in vivo, 72 h, time 3 day
# Hepatitis B virus [21] = assay: Antiviral activity against HBV infected in human HepG2-NTCP cells assessed as reduction in HBeAg secretion at 1 to 10 uM incubated for 24 hrs followed by replacement with fresh medium and measured at day 5 post infection by ELISA; type: functional, organism-based; settings: dose 1-10 µM
# [22] = target: T1, Hepatic sodium/bile acid cotransporter; assay: Inhibition of human NTCP-mediated [3H]-TCA uptake expressed in human HepG2 cells at 3.3 uM incubated for 10 mins by liquid scintillation counter analysis; type: cell-based; settings: hepg2, 10 min
# Hepatitis B virus [23] = assay: Antiviral activity against HBV infected in human HepG2-NTCP cells assessed as reduction in HBeAg secretion measured at day 7 post infection by ELISA; type: functional, organism-based; settings: HepG2, 168 h
# Hepatitis delta virus = assay: Antiviral activity against HDV infected in human HepG2-NTCP cells assessed as reduction in intranuclear accumulation of HDV delta antigen at 10 uM incubated for 24 hrs followed by replacement with fresh medium and measured at day 5 post infection by DAPI staining based confocal microscopic analysis (reference value: 12.1 %); type: functional; set-up: scale not given: the % may be the effect or the level left
smiles,measurement,setting,value
C[C@@H]1CCC(=O)NC(C(=O)NCCS(=O)(=O)O)CNC(=O)CC[C@@H](C)[C@H]2CC[C@H]3[C@@H]4[C@@H](O)C[C@@H]5C[C@@H](CC[C@]5(C)[C@H]4CC[C@]23C)n2cc(nn2)CO[C@@H]2CC[C@@]3(C)[C@@H](C2)C[C@H](O)[C@@H]2[C@@H]3CC[C@]3(C)[C@@H]1CC[C@@H]23 (stereo not given in full),IC50,Hepatitis B virus [1],178 nM
same,half-life at 1 µM,[2],0.929 h
same,microsomal CLint at 1 µM,[3],12 µL/min/mg
same,IC50,[4],54 nM
same,IC50,[5],81.5 nM
same,IC50,[6],23.5 nM
same,fraction unbound,[7],0.01
same,fraction unbound,[8],0.01
same,inhibition (INH),[9],Active
same,inhibition,HepG2,Active
same,inhibition (INH),[10],Not Active
same,inhibition (INH),[11],Not Active
same,half-life at 1 µM,[12],1.89 h
same,microsomal CLint at 1 µM,[13],6.1 µL/min/mg
same,half-life,[14],1.6 h
same,bioavailability,[15],32%
same,bioavailability,[16],1.3%
same,Activity,Mus musculus [17],Active
same,Activity,Mus musculus [18],inactive
same,Activity,[19],Non-Toxic
same,Activity,[20],Non-Toxic
C[C@H](CCC(=O)NCCS(=O)(=O)O)[C@H]1CC[C@H]2[C@@H]3[C@@H](O)C[C@@H]4C[C@H](O)CC[C@]4(C)[C@H]3CC[C@]12C [TAURURSODIOL],Activity,Hepatitis B virus [21],inactive
same,inhibition (INH),[22],Not Active
same,IC50,Hepatitis B virus [23],3000 nM
same,Activity,Hepatitis delta virus,7.1%
